Test results from patent US6525001B1, “Substituted pyrimidine and pyridine herbicides” (Mid-American Commercialization Corporation, priority 1997, dated 2003).

Tests used:
Format in all cases: in vivo
Set-up in all cases: key: 0 is no effect; 10 is complete control
[1] = system: bamyardgrass (Echinochloa crus-galli); assay: Test B flood test
Outline: (§1)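 Flood test on plants grown to the 2-leaf stage; treated plants kept in greenhouse twelve to sixteen days, then visually rated against controls on a 0 (no effect) to 10 (complete control) scale.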

[2] = system: duck salad (Heteranthera limosa); assay: Test B flood test
Outline: as §1

[3] = system: smallflower flatsedge (Cyperus difformis); assay: Test B flood test
Outline: as §1

rice (Oryza sativa) = assay: Test B flood test
Outline: as §1

[4] = system: cocklebur (Xanthium strumarium); assay: Test B pre-/postemergence; conditions: for Plant response rating, Cocklebur: Postemergence
Outline: (§2)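 Scored visually 0 (none) to 10 (complete control) against untreated plants after twelve to sixteen greenhouse days. Test chemicals, formulated in surfactant-containing non-phytotoxic solvent, applied to soil after planting and, separately, onto 1- to 4-leaf (2–18 cm) plants.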

wild oat (Avena fatua) = assay: Test B pre-/postemergence
Outline: as §2

rape (Brassica napus) = assay: Test B pre-/postemergence
Outline: as §2

[5] = system: blackgrass (Alopecurus myosuroides); assay: Test B pre-/postemergence; conditions: for Blackgrass plant response rating: Preemergence
Outline: as §2

[6] = system: velvetleaf (Abutilon theophrasti); assay: Test B pre-/postemergence
Outline: as §2

[7] = system: pigweed (Amaranthus retroflexus); assay: Test B pre-/postemergence
Outline: as §2

[8] = system: purple nutsedge (Cyperus rotundus); assay: Test B pre-/postemergence; conditions: for Nutsedge plant response rating: Preemergence
Outline: as §2

[9] = system: broadleaf signalgrass (Brachiaria decumbens); assay: Test B pre-/postemergence; conditions: for B. signalgrass plant response rating: Preemergence
Outline: as §2

[10] = system: bedstraw (Galium aparine); assay: Test B pre-/postemergence; conditions: for Plant response rating, Bedstraw: Postemergence; for Bedstraw plant response rating: Preemergence
Outline: as §2

[11] = system: giant foxtail (Setaria faberii); assay: Test B pre-/postemergence
Outline: as §2

[12] = system: sugar beet (Beta vulgaris); assay: Test B pre-/postemergence
Outline: as §2

soybean (Glycine max) = assay: Test B pre-/postemergence
Outline: as §2

[13] = system: momingglory (Ipomoea hederacea); assay: Test B pre-/postemergence
Outline: as §2

[14] = system: wheat (Triticum aestivum); assay: Test B pre-/postemergence
Outline: as §2

[15] = system: crabgrass (Digitaria sanguinalis); assay: Test B pre-/postemergence; conditions: for Crabgrass plant response rating: Preemergence
Outline: as §2

corn (Zea mays) = assay: Test B pre-/postemergence; conditions: for Corn plant response rating: Preemergence
Outline: as §2

[16] = Rate 62 g/ha, Postemergence (flood test)
[17] = Rate 125 g/ha, Postemergence, flood test
[18] = Rate 250 g/ha, Postemergence (flood test species)
[19] = Rate 125 g/ha, Postemergence section (flood test species)
[20] = Rate 250 g/ha, Postemergence (so in the source)

## Cc1cnc(-c2ccc(Cl)c(Cl)c2)nc1Cc1cccc(C(F)(F)F)c1 [Compound 27]
[1]; [16]
  Plant response rating, Barnyardgrass: 1
[1]; [17]
  Plant response rating, Barnyardgrass: 2
[1]; [18]
  Plant response rating, Barnyardgrass: 3
[2]; [16]
  Plant response rating, Ducksalad: 0
[2]; [17]
  Plant response rating, Ducksalad: 1
[2]; [18]
  Plant response rating, Ducksalad: 2
[3]; [16]
  Plant response rating, S. Flatsedge: 5
[3]; [19]
  S. Flatsedge plant response rating: 5
[3]; [18]
  Plant response rating, S. Flatsedge: 5
Rice (Oryza sativa); [16]
  Plant response rating, Rice: 0
Rice (Oryza sativa); [19]
  Rice plant response rating: 1
Rice (Oryza sativa); [18]
  Plant response rating, Rice: 1
[4]; Rate 62 g/ha
  Plant response rating, Cocklebur: 7
[4]; Rate 62 g/ha, Preemergence
  Cocklebur plant response rating: 0
[4]; Rate 125 g/ha
  Plant response rating, Cocklebur: 7
[4]; Rate 250 g/ha
  Plant response rating, Cocklebur: 9
Wild oat (Avena fatua); Rate 62 g/ha, Postemergence
  Plant response rating, Wild oats: 3
Wild oat (Avena fatua); Rate 62 g/ha, Preemergence
  Wild oats plant response rating: 0
Wild oat (Avena fatua); Rate 125 g/ha, Postemergence
  Wild oats plant response rating: 4
Wild oat (Avena fatua); Rate 125 g/ha, Preemergence
  Plant response rating, Wild oats: 1
Wild oat (Avena fatua); Rate 250 g/ha, Postemergence
  Plant response rating, Wild oats: 5
Wild oat (Avena fatua); [20]
  Plant response rating, Wild oats: 3
Rape (Brassica napus); Rate 62 g/ha, Postemergence
  Plant response rating, Rape: 8
Rape (Brassica napus); Rate 62 g/ha, Preemergence
  Rape plant response rating: 1
Rape (Brassica napus); Rate 125 g/ha, Postemergence
  Rape plant response rating: 8
Rape (Brassica napus); Rate 125 g/ha, Preemergence
  Rape plant response rating: 2
Rape (Brassica napus); Rate 250 g/ha, Postemergence
  Plant response rating, Rape: 9
Rape (Brassica napus); [20]
  Plant response rating, Rape: 3
[5]; Rate 62 g/ha, Postemergence
  Plant response rating, Blackgrass: 4
[5]; Rate 62 g/ha
  Blackgrass plant response rating: 0
[5]; Rate 125 g/ha, Postemergence
  Plant response rating, Blackgrass: 4
[5]; Rate 125 g/ha
  Blackgrass plant response rating: 2
[5]; Rate 250 g/ha, Postemergence
  Plant response rating, Blackgrass: 5
[5]; [20]
  Plant response rating, Blackgrass: 4
[6]; Rate 62 g/ha, Postemergence
  Plant response rating, Velvetleaf: 5
[6]; Rate 62 g/ha, Preemergence
  Velvetleaf plant response rating: 0
[6]; Rate 125 g/ha, Postemergence
  Velvetleaf plant response rating: 7
[6]; Rate 125 g/ha, Preemergence
  Plant response rating, Velvetleaf: 0
[6]; Rate 250 g/ha, Postemergence
  Plant response rating, Velvetleaf: 7
[6]; [20]
  Plant response rating, Velvetleaf: 1
[7]; Rate 62 g/ha, Postemergence
  Plant response rating, Redroot pigweed: 7
[7]; Rate 62 g/ha, Preemergence
  Redroot pigweed plant response rating: 2
[7]; Rate 125 g/ha, Postemergence
  Redroot pigweed plant response rating: 9
[7]; Rate 125 g/ha, Preemergence
  Redroot pigweed plant response rating: 6
[7]; Rate 250 g/ha, Postemergence
  Plant response rating, Redroot pigweed: 10
[7]; [20]
  Plant response rating, Redroot pigweed: 7
[8]; Rate 62 g/ha, Postemergence
  Plant response rating, Nutsedge: 2
[8]; Rate 62 g/ha
  Nutsedge plant response rating: 0
[8]; Rate 125 g/ha
  Nutsedge plant response rating: 0
[8]; [20]
  Plant response rating, Nutsedge: 0
[9]; Rate 62 g/ha, Postemergence
  Plant response rating, B. signalgrass: 3
[9]; Rate 62 g/ha
  B. signalgrass plant response rating: 0
[9]; Rate 125 g/ha, Postemergence
  Plant response rating, B. signalgrass: 5
[9]; Rate 125 g/ha
  B. signalgrass plant response rating: 1
[9]; Rate 250 g/ha, Postemergence
  Plant response rating, B. signalgrass: 5
[9]; Rate 250 g/ha, Postemergence as printed in head r139 (second section for compounds 26-50)
  Plant response rating, B. signalgrass: 3
[10]; Rate 62 g/ha
  Plant response rating, Bedstraw: 8
  Bedstraw plant response rating: 0
[10]; Rate 125 g/ha
  Plant response rating, Bedstraw: 9
  Bedstraw plant response rating: 0
[10]; Rate 250 g/ha
  Plant response rating, Bedstraw: 9
[11]; Rate 62 g/ha, Postemergence
  Plant response rating, Giant foxtail: 3
[11]; Rate 62 g/ha, Preemergence
  Giant foxtail plant response rating: 2
[11]; Rate 125 g/ha, Postemergence
  Giant foxtail plant response rating: 4
[11]; Rate 125 g/ha, Preemergence
  Giant foxtail plant response rating: 5
[11]; Rate 250 g/ha, Postemergence
  Plant response rating, Giant foxtail: 4
[11]; [20]
  Plant response rating, Giant foxtail: 9
[12]; Rate 62 g/ha, Postemergence
  Plant response rating, Sugarbeets: 9
[12]; Rate 62 g/ha, Preemergence
  Sugarbeets plant response rating: 0
[12]; Rate 125 g/ha, Postemergence
  Sugarbeets plant response rating: 9
[12]; Rate 125 g/ha, Preemergence
  Plant response rating, Sugarbeets: 1
[12]; Rate 250 g/ha, Postemergence
  Plant response rating, Sugarbeets: 10
[12]; [20]
  Plant response rating, Sugarbeets: 8
Soybean (Glycine max); Rate 62 g/ha, Postemergence
  Plant response rating, Soybean: 5
Soybean (Glycine max); Rate 62 g/ha, Preemergence
  Soybean plant response rating: 0
Soybean (Glycine max); Rate 125 g/ha, Postemergence
  Soybean plant response rating: 5
Soybean (Glycine max); Rate 125 g/ha, Preemergence
  Plant response rating, Soybean: 0
Soybean (Glycine max); Rate 250 g/ha, Postemergence
  Plant response rating, Soybean: 7
Soybean (Glycine max); [20]
  Plant response rating, Soybean: 0
[13]; Rate 62 g/ha, Postemergence
  Plant response rating, Morningglory: 5
[13]; Rate 62 g/ha, Preemergence
  Morningglory plant response rating: 1
[13]; Rate 125 g/ha, Postemergence
  Morningglory plant response rating: 8
[13]; Rate 125 g/ha, Preemergence
  Morningglory plant response rating: 2
[13]; Rate 250 g/ha, Postemergence
  Plant response rating, Morningglory: 8
[13]; [20]
  Plant response rating, Morningglory: 2
[14]; Rate 62 g/ha, Postemergence
  Plant response rating, Wheat: 3
[14]; Rate 62 g/ha, Preemergence
  Wheat plant response rating: 0
[14]; Rate 125 g/ha, Postemergence
  Wheat plant response rating: 4
[14]; Rate 125 g/ha, Preemergence
  Plant response rating, Wheat: 0
[14]; Rate 250 g/ha, Postemergence
  Plant response rating, Wheat: 4
[14]; [20]
  Plant response rating, Wheat: 1
[15]; Rate 62 g/ha, Postemergence
  Plant response rating, Crabgrass: 3
[15]; Rate 62 g/ha
  Crabgrass plant response rating: 1
[15]; Rate 125 g/ha, Postemergence
  Plant response rating, Crabgrass: 4
[15]; Rate 125 g/ha
  Crabgrass plant response rating: 2
[15]; Rate 250 g/ha, Postemergence
  Plant response rating, Crabgrass: 6
[15]; [20]
  Plant response rating, Crabgrass: 5
Corn (Zea mays); Rate 62 g/ha, Postemergence
  Plant response rating, Corn: 2
Corn (Zea mays); Rate 62 g/ha
  Corn plant response rating: 0
Corn (Zea mays); Rate 125 g/ha, Postemergence
  Plant response rating, Corn: 3
Corn (Zea mays); Rate 125 g/ha
  Corn plant response rating: 0
Corn (Zea mays); Rate 250 g/ha, Postemergence
  Plant response rating, Corn: 3
Corn (Zea mays); [20]
  Plant response rating, Corn: 0
